Experiments:
[1] = Amount of antimycotic in the nail after topical application of the lacquer compositions, HPLC after extraction of distal nail material; assay type: in vivo, human
Method: The amount of antimycotic in the nail after application of the compositions according to the invention was determined by HPLC measurements after extraction of distal nail material obtained on cutting the nails of volunteers.
After treatment 2× a week for 6 weeks, the values found for the composition of Example 3 were as follows:
After treatment 2× a week for 2 weeks, the values found for the composition of Example 4 were as follows: […]

[2] = oral administration of 100 mg of itraconazole each day for 3 months; cited from earlier work
[3] = composition of Example 3, topical, treatment 2x a week for 6 weeks, distal nail material of volunteers

| Structure (SMILES) | amount of antimycotic in the nail [1, 3] | amount of antimycotic in the nail ([1]; composition of Example 4, topical, treatment 2x a week for 2 weeks, distal nail material of volunteers) | itraconazole concentration in the distal nail plate [2] | amount of antimycotic in the nail ([1]; human, in vivo, 2 weeks) |
| --- | --- | --- | --- | --- |
| Cc1cc(C2CCCCC2)n(O)c(=O)c1 [ciclopirox, 6-cyclohexyl-1-hydroxy-4-methyl-2(1H)-pyridone] | 140 μg/g of nail | 92 μg/g of nail |  |  |
| CCC(C)n1ncn(-c2ccc(N3CCN(c4ccc(OCC5COC(Cn6cncn6)(c6ccc(Cl)cc6Cl)O5)cc4)CC3)cc2)c1=O (centres unmarked) [itraconazole] | 800 ng/g of nail |  | 100 ng/g of nail |  |
| OC(Cn1cncn1)(Cn1cncn1)c1ccc(F)cc1F [fluconazole, α-(2,4-difluorophenyl)-α-(1H-1,2,4-triazol-1-ylmethyl)-1H-1,2,4-triazol-1-ethanol] |  |  |  | 17 μg/g of nail |

Source: patent US20010046478A1, “Antiinfective combinations and their use for the topical treatment of fungal infections of the toenails and fingernails” (priority 2000, published 2001)
